According to patent US11179435B2, “Hangover alleviating composition containing conjugate of sesamol and peptide as active ingredient” (CAREGEN CO., LTD., priority 2017, dated 2021):
Starred links: 1 amine or outer side, 2 acyl side, 3 side chain; linkers in the order of their positions; H or OH if unused. No end group written: not given here. Suc = O=C(CCC(=O)[*:2])[*:1]

Columns and labels:
Assay type in all cases: cell-based, human
[1] = system: aldehyde dehydrogenase (ALDH); experiment: ALDH activity assay in HepG2 cells treated with conjugate; details: 50 μM or 100 μM, 24 hours, compared to untreated control group
Protocol: Alcohol was converted to acetaldehyde by alcohol dehydrogenase (ADH), an alcohol degrading enzyme, and the converted acetaldehyde was converted and degraded to acetate by aldehyde dehydrogenase (ALDH). Therefore, in order to confirm the effect of increasing the activity of ALDH involved in the alcohol degradation process, liver carcinoma cells were treated with the two types of conjugates of the sesamol and the peptides prepared in [Preparation Example 2], respectively, and then the ALDH activity assay was performed.
Specifically, liver hepatocellular carcinoma (HepG2) cells, which were human liver carcinoma cells, were inoculated into a 6-well plate at a density of 4×10^5 cells/well and then incubated overnight. Thereafter, the two types of conjugates of the sesamol and the peptides prepared in [Preparation Example 2] were treated at a concentration of 50 μM or 100 μM, respectively, and incubated for 24 hours, and the cells were collected and then the ALDH activity was analyzed using an ALDH activity assay kit (abcam, ab155893). Meanwhile, a positive control group was treated with 5 μM sulfolaphane.
For the ALDH activity assay, each of the collected cells was treated with an ALDH activity assay buffer included in the kit, and then lysed with a homogenizer under ice. […] Thereafter, the ALDH activity was calculated using the following [Equation 1]. […]

ADH4 = experiment: RT-PCR mRNA expression in HepG2 cells; details: 10 μM or 50 μM, 6 hours, compared with untreated control group
Protocol: (§1) In order to confirm an effect of increasing the expression of ADH and ALDH involved in the alcohol degradation process, liver carcinoma cells were treated with the two types of conjugates of the sesamol and the peptides prepared in [Preparation Example 2], respectively, and then RT-PCR was performed.
(§2) Specifically, HepG2 cells were inoculated in a 6-well plate at a density of 4×10^5 cells/well, and then incubated overnight. Thereafter, the two types of conjugates of the sesamol and the peptides prepared in [Preparation Example 2] were treated at a concentration of 10 μM or 50 μM, respectively, and incubated for 6 hours, and the cells were collected. Thereafter, the total RNA was isolated from the collected cells according to a manufacturer's protocol using Trizol (Invitrogen, USA), and then 1 μg of the isolated RNA was synthesized to cDNA according to a manufacturer's protocol using a cDNA synthesis kit (Intron, Korea). The cDNA was subjected to PCR using primers shown in Table 2 below, and then electrophoresed on a 5% agarose gel to confirm mRNA expression levels of ADH4, ALDH1, and ALDH2.

ALDH1 = experiment: RT-PCR mRNA expression in HepG2 cells; details: 10 μM or 50 μM, 6 hours, compared with untreated control group
Protocol: as §1, §2

ALDH2 = experiment: RT-PCR mRNA expression in HepG2 cells; details: 10 μM or 50 μM, 6 hours, compared with untreated control group
Protocol: as §1, §2

SEQ ID NO: 1: Sesamol linked via succinyl linker to the N-terminus of peptide SIPCKLQSG (SEQ ID NO: 1) ({sesamol-Suc}-SIPCKLQSG)
ALDH activity [1]: increased in a concentration-dependent manner | mRNA expression of ADH4 (ADH4): significantly increased | mRNA expression of ALDH1 (ALDH1): significantly increased | mRNA expression of ALDH2 (ALDH2): significantly increased
